Assay results: article PMC6625793, “The autophagic membrane tether ATG2A transfers lipids between membranes” (eLife, 2019)

Assays:
Type in all cases: binding
ATG2A = target: T1, ATG2A (Homo sapiens, UniProt Q2TAZ0); experiment: lipid extraction from LUVs, Nycodenz flotation, native PAGE fluorescence; details: 20 mM HEPES pH 7.5, 150 mM NaCl, 1 mM TCEP; ~22 °C; 20% NBD-PE/80% DOPC LUVs; labelled compound
T1 construct: full-length (1938 residues); N-terminal GST cleaved by TEV, C-terminal TwinStrepII tag kept; expressed in Sf9 insect cells

WIPI4 = target: T2, WIPI4 (Homo sapiens, UniProt Q9Y484); experiment: liposome flotation, western blot; details: 20 mM HEPES pH 7.5, 150 mM NaCl, 1 mM TCEP; LUVs with 5% PI3P versus without PI3P
T2 construct: gene WDR45; N-terminal 10xHis tag kept in flotation assays; expressed in Sf9 insect cells
T2 sequence (Q9Y484 1-360): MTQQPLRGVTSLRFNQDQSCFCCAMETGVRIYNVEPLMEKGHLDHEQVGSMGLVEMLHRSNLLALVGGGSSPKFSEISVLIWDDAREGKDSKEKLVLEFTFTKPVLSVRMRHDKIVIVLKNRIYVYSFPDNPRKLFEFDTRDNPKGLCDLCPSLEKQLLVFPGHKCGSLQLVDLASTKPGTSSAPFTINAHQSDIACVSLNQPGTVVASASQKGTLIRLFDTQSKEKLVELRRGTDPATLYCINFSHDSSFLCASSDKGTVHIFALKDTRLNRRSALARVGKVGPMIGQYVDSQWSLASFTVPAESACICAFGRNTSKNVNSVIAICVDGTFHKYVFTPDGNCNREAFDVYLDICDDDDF

WIPI1 = target: T3, WIPI1 (Homo sapiens, UniProt Q5MNZ9); experiment: liposome flotation, western blot; details: 20 mM HEPES pH 7.5, 150 mM NaCl, 1 mM TCEP; LUVs with 5% PI3P versus without PI3P
T3 construct: residues 1-446; N-terminal 6xHis tag kept in flotation assays; expressed in Sf9 insect cells
T3 sequence (Q5MNZ9 1-446): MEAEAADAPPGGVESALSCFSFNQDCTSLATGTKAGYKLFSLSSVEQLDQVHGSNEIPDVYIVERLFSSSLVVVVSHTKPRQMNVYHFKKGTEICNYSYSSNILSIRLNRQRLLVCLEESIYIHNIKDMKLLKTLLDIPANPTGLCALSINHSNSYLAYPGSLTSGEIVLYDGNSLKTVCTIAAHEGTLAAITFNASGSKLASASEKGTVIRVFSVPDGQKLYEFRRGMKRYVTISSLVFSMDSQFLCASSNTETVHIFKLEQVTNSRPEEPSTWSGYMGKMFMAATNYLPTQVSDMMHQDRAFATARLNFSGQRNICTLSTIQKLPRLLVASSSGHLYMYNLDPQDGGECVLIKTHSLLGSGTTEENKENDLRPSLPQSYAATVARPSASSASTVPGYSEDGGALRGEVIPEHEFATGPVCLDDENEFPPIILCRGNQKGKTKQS

T1 sequence (Q2TAZ0 whole entry): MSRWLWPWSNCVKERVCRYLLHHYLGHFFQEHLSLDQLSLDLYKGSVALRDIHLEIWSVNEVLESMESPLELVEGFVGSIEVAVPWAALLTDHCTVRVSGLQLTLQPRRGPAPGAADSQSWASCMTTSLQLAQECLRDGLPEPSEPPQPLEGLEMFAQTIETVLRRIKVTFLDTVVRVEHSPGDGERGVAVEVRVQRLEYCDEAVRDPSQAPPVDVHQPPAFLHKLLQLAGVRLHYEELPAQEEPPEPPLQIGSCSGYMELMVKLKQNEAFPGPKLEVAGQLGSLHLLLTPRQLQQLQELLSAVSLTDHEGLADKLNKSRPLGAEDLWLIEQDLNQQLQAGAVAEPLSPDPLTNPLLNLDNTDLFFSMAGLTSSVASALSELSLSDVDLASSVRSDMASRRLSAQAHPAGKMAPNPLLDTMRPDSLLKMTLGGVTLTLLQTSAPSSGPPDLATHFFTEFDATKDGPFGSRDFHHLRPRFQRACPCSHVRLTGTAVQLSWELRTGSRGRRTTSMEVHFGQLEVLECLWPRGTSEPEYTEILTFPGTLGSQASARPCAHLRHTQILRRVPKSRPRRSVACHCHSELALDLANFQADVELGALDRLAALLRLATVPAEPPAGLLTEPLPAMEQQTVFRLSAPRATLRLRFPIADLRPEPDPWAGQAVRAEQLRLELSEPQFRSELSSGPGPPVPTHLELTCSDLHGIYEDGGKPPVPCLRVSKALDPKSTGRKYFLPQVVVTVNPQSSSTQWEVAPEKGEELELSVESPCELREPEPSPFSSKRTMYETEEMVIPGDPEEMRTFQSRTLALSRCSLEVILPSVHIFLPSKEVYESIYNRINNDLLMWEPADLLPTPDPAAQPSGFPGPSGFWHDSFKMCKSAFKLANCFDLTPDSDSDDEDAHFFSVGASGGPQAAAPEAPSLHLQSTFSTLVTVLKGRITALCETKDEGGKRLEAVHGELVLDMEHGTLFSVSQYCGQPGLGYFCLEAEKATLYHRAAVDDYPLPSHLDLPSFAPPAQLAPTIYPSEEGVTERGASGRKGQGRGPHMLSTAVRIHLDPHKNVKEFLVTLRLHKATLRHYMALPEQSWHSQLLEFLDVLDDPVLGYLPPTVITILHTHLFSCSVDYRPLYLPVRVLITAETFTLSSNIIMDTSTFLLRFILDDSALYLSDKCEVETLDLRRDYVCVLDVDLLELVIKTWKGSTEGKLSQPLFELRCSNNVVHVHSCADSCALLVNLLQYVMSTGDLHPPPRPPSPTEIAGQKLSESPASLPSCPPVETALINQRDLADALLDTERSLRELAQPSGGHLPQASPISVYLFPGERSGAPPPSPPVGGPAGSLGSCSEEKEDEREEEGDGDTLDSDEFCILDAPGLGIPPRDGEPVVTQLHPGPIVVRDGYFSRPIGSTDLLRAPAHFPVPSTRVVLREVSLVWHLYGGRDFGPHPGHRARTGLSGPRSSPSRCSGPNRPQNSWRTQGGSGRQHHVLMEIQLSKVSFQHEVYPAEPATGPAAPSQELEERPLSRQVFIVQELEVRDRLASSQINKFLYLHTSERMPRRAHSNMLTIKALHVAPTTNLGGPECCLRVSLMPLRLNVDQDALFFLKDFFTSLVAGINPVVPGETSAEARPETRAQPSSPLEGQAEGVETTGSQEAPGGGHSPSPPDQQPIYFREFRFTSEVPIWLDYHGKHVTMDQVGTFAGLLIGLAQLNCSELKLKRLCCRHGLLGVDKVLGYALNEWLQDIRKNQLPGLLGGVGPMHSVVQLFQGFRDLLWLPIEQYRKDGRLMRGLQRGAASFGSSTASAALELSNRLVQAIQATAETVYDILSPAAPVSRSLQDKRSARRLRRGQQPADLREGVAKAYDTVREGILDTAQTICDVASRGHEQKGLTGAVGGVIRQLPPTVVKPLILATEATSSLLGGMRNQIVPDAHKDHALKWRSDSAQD

## CCCCCCCC/C=C\CCCCCCCC(=O)OC[C@H](COP(=O)(O)OCCNc1ccc([N+](=O)[O-])c2nonc12)OC(=O)CCCCCCC/C=C\CCCCCCCC [NBD-PE, 1,2-dioleoyl-sn-glycero-3-phosphoethanolamine-N-(7-nitro-2–1,3-benzoxadiazol-4-yl)]
ATG2A
  lipid extraction from LUVs, Nycodenz flotation, native PAGE fluorescence: ATG2A can extract NBD-PE from membranes and dissociate from the membrane with those lipids attached

## CCCCCCCC/C=C\CCCCCCCC(=O)OC[C@H](COP(=O)(O)O[C@@H]1[C@H](O)[C@H](OP(=O)(O)O)[C@@H](O)[C@H](O)[C@H]1O)OC(=O)CCCCCCC/C=C\CCCCCCCC [PI3P]
WIPI4
  liposome flotation, western blot: both WIPIs bind to membranes in a PI3P-dependent manner
WIPI1
  liposome flotation, western blot: both WIPIs bind to membranes in a PI3P-dependent manner
